Results from PubChem BioAssay (NCI).
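Protocol summary: plate cells (96-well), add compound at 5 concentrations, incubate 48 h, interpolate endpoints linearly. Definition used: TGI = concentration required for complete inhibition of growth.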

Experiments:
Test in all cases: NCI-60 cell line screen, 48 h
MDA-MB-435 = system: MDA-MB-435
HOP-62 NSCLC = system: HOP-62 NSCLC
NCI-H226 lung = system: NCI-H226 lung
SNB-19 CNS = system: SNB-19 CNS
CCRF-CEM leukemia = system: CCRF-CEM leukemia
A549 NSCLC = system: A549 NSCLC
SK-MEL-28 melanoma = system: SK-MEL-28 melanoma
HL-60(TB) leukemia = system: HL-60(TB) leukemia
IGROV1 ovarian = system: IGROV1 ovarian
NCI/ADR-RES ovarian = system: NCI/ADR-RES ovarian
OVCAR-4 ovarian = system: OVCAR-4 ovarian
HT29 colon = system: HT29 colon
TK-10 renal = system: TK-10 renal
A498 renal = system: A498 renal
KM12 colon = system: KM12 colon
NCI-H23 lung = system: NCI-H23 lung
SF-539 CNS = system: SF-539 CNS
NCI-H460 lung = system: NCI-H460 lung
SK-MEL-2 melanoma = system: SK-MEL-2 melanoma
MDA-N = system: MDA-N
HCT-116 colon = system: HCT-116 colon
HCC-2998 colon = system: HCC-2998 colon
ACHN renal = system: ACHN renal
CAKI-1 renal = system: CAKI-1 renal
HCT-15 colon = system: HCT-15 colon
UACC-257 melanoma = system: UACC-257 melanoma
OVCAR-5 ovarian = system: OVCAR-5 ovarian
SW-620 colon = system: SW-620 colon
SF-268 CNS = system: SF-268 CNS
COLO 205 colon = system: COLO 205 colon
OVCAR-3 ovarian = system: OVCAR-3 ovarian
M14 melanoma = system: M14 melanoma
U251 CNS = system: U251 CNS
SNB-75 CNS = system: SNB-75 CNS
786-0 renal = system: 786-0 renal
SN12C renal = system: SN12C renal
MCF7 breast = system: MCF7 breast
OVCAR-8 ovarian = system: OVCAR-8 ovarian
MALME-3M melanoma = system: MALME-3M melanoma
SK-OV-3 ovarian = system: SK-OV-3 ovarian
K-562 leukemia = system: K-562 leukemia
MDA-MB-231 breast = system: MDA-MB-231 breast
UO-31 renal = system: UO-31 renal
UACC-62 melanoma = system: UACC-62 melanoma
HOP-92 NSCLC = system: HOP-92 NSCLC
LOX IMVI melanoma = system: LOX IMVI melanoma
SF-295 CNS = system: SF-295 CNS
DU-145 prostate = system: DU-145 prostate
RXF 393 renal = system: RXF 393 renal
T-47D breast = system: T-47D breast
NCI-H522 lung = system: NCI-H522 lung
PC-3 prostate = system: PC-3 prostate
EKVX NSCLC = system: EKVX NSCLC
MOLT-4 leukemia = system: MOLT-4 leukemia
SR leukemia = system: SR leukemia
SK-MEL-5 melanoma = system: SK-MEL-5 melanoma
RPMI-8226 leukemia = system: RPMI-8226 leukemia
HS 578T breast = system: HS 578T breast
BT-549 breast = system: BT-549 breast

O=c1[nH]c(=O)n(COCCOCc2ccccc2)cc1Nc1ccccc1
TGI (MDA-MB-435): > 100 µM
TGI (HOP-62 NSCLC): > 100 µM
TGI (NCI-H226 lung): > 100 µM
TGI (SNB-19 CNS): > 100 µM
TGI (CCRF-CEM leukemia): > 100 µM
TGI (A549 NSCLC): > 100 µM
TGI (SK-MEL-28 melanoma): > 100 µM
TGI (HL-60(TB) leukemia): > 100 µM
TGI (IGROV1 ovarian): > 100 µM
TGI (NCI/ADR-RES ovarian): > 100 µM
TGI (OVCAR-4 ovarian): > 100 µM
TGI (HT29 colon): > 100 µM
TGI (TK-10 renal): > 100 µM
TGI (A498 renal): > 100 µM
TGI (KM12 colon): > 100 µM
TGI (NCI-H23 lung): > 100 µM
TGI (SF-539 CNS): > 100 µM
TGI (NCI-H460 lung): > 100 µM
TGI (SK-MEL-2 melanoma): > 100 µM
TGI (MDA-N): > 100 µM
TGI (HCT-116 colon): > 100 µM
TGI (HCC-2998 colon): > 100 µM
TGI (ACHN renal): > 100 µM
TGI (CAKI-1 renal): > 100 µM
TGI (HCT-15 colon): > 100 µM
TGI (UACC-257 melanoma): > 100 µM
TGI (OVCAR-5 ovarian): > 100 µM
TGI (SW-620 colon): > 100 µM
TGI (SF-268 CNS): > 100 µM
TGI (COLO 205 colon): > 100 µM
TGI (OVCAR-3 ovarian): > 100 µM
TGI (M14 melanoma): > 100 µM
TGI (U251 CNS): > 100 µM
TGI (SNB-75 CNS): > 100 µM
TGI (786-0 renal): > 100 µM
TGI (SN12C renal): > 100 µM
TGI (MCF7 breast): > 100 µM
TGI (OVCAR-8 ovarian): > 100 µM
TGI (MALME-3M melanoma): > 100 µM
TGI (SK-OV-3 ovarian): > 100 µM
TGI (K-562 leukemia): > 100 µM
TGI (MDA-MB-231 breast): > 100 µM
TGI (UO-31 renal): > 100 µM
TGI (UACC-62 melanoma): > 100 µM
TGI (HOP-92 NSCLC): > 100 µM
TGI (LOX IMVI melanoma): > 100 µM
TGI (SF-295 CNS): > 100 µM
TGI (DU-145 prostate): > 100 µM
TGI (RXF 393 renal): > 100 µM
TGI (T-47D breast): > 100 µM
TGI (NCI-H522 lung): > 100 µM
TGI (PC-3 prostate): > 100 µM
TGI (EKVX NSCLC): > 100 µM
TGI (MOLT-4 leukemia): > 100 µM
TGI (SR leukemia): > 100 µM

CC#CC(O)(C(=O)OC1CCC2CCC1N2C)C1CCCC1 (stereo unspecified)
TGI (HOP-62 NSCLC): > 100 µM
TGI (NCI-H226 lung): > 100 µM
TGI (SNB-19 CNS): > 100 µM
TGI (A549 NSCLC): > 100 µM
TGI (SK-MEL-28 melanoma): > 100 µM
TGI (IGROV1 ovarian): > 100 µM
TGI (NCI/ADR-RES ovarian): > 10 µM
TGI (HT29 colon): > 100 µM
TGI (TK-10 renal): > 100 µM
TGI (KM12 colon): > 100 µM
TGI (NCI-H23 lung): > 100 µM
TGI (SF-539 CNS): > 100 µM
TGI (SK-MEL-5 melanoma): > 100 µM
TGI (MDA-N): > 100 µM
TGI (HCT-116 colon): > 100 µM
TGI (HCC-2998 colon): > 100 µM
TGI (ACHN renal): > 10 µM
TGI (CAKI-1 renal): > 100 µM
TGI (HCT-15 colon): > 100 µM
TGI (UACC-257 melanoma): > 100 µM
TGI (OVCAR-5 ovarian): > 10 µM
TGI (SW-620 colon): > 100 µM
TGI (SF-268 CNS): > 100 µM
TGI (COLO 205 colon): > 100 µM
TGI (OVCAR-3 ovarian): > 100 µM
TGI (M14 melanoma): > 100 µM
TGI (U251 CNS): > 10 µM
TGI (SNB-75 CNS): > 100 µM
TGI (786-0 renal): > 100 µM
TGI (SN12C renal): > 100 µM
TGI (MCF7 breast): > 100 µM
TGI (OVCAR-8 ovarian): > 100 µM
TGI (MALME-3M melanoma): > 100 µM
TGI (SK-OV-3 ovarian): > 100 µM
TGI (MDA-MB-231 breast): > 100 µM
TGI (UO-31 renal): > 100 µM
TGI (UACC-62 melanoma): > 100 µM
TGI (LOX IMVI melanoma): > 100 µM
TGI (SF-295 CNS): > 100 µM
TGI (DU-145 prostate): > 100 µM
TGI (RXF 393 renal): > 100 µM
TGI (T-47D breast): > 100 µM
TGI (NCI-H522 lung): > 100 µM
TGI (PC-3 prostate): > 100 µM
TGI (EKVX NSCLC): > 100 µM
TGI (MOLT-4 leukemia): > 100 µM
TGI (SR leukemia): > 100 µM
TGI (RPMI-8226 leukemia): > 100 µM

Cc1cc(Cl)nc(Nc2nc3ccccc3[nH]2)n1
TGI (MDA-MB-435): > 100 µM
TGI (HOP-62 NSCLC): > 100 µM
TGI (NCI-H226 lung): > 100 µM
TGI (SNB-19 CNS): > 100 µM
TGI (CCRF-CEM leukemia): > 100 µM
TGI (A549 NSCLC): > 100 µM
TGI (SK-MEL-28 melanoma): > 100 µM
TGI (HS 578T breast): > 100 µM
TGI (HL-60(TB) leukemia): > 100 µM
TGI (IGROV1 ovarian): > 100 µM
TGI (NCI/ADR-RES ovarian): > 100 µM
TGI (OVCAR-4 ovarian): > 100 µM
TGI (HT29 colon): > 100 µM
TGI (TK-10 renal): > 100 µM
TGI (A498 renal): > 100 µM
TGI (NCI-H23 lung): > 100 µM
TGI (SF-539 CNS): > 100 µM
TGI (NCI-H460 lung): > 100 µM
TGI (SK-MEL-2 melanoma): > 100 µM
TGI (SK-MEL-5 melanoma): > 100 µM
TGI (MDA-N): > 100 µM
TGI (HCT-116 colon): > 100 µM
TGI (HCC-2998 colon): > 100 µM
TGI (ACHN renal): > 100 µM
TGI (HCT-15 colon): > 100 µM
TGI (UACC-257 melanoma): > 100 µM
TGI (OVCAR-5 ovarian): > 100 µM
TGI (SW-620 colon): > 100 µM
TGI (SF-268 CNS): > 100 µM
TGI (COLO 205 colon): > 100 µM
TGI (OVCAR-3 ovarian): > 100 µM
TGI (M14 melanoma): > 100 µM
TGI (U251 CNS): > 100 µM
TGI (SNB-75 CNS): > 100 µM
TGI (786-0 renal): > 100 µM
TGI (SN12C renal): > 100 µM
TGI (MCF7 breast): > 100 µM
TGI (OVCAR-8 ovarian): > 100 µM
TGI (BT-549 breast): > 100 µM
TGI (MALME-3M melanoma): > 100 µM
TGI (SK-OV-3 ovarian): > 100 µM
TGI (K-562 leukemia): > 100 µM
TGI (MDA-MB-231 breast): > 100 µM
TGI (UO-31 renal): > 100 µM
TGI (UACC-62 melanoma): > 100 µM
TGI (HOP-92 NSCLC): > 100 µM
TGI (LOX IMVI melanoma): > 100 µM
TGI (SF-295 CNS): > 100 µM
TGI (DU-145 prostate): > 100 µM
TGI (RXF 393 renal): > 100 µM
TGI (NCI-H522 lung): 5.96 µM
TGI (PC-3 prostate): > 100 µM
TGI (SR leukemia): > 100 µM
